Entries after “also recorded” stand apart in the source; their conditions may differ.
Experiments:
dogs = assay: Single-dose oral toxicity; format: in vivo, dog
[1] = Stability of oral dosing solution; format: physicochemical
Source text: Most preferably, an oral dose of the composition is used. An oral dosing formulation was validated by a GLP study.

mouse liver = assay: In vivo comet assay
Method: The comet assay (alkaline single cell gel electrophoresis) is a microgel electrophoretic technique that detects DNA damage in individual cells. DNA damage can be expressed as DNA single strand breaks, double strand breaks, and strand breaks induced by alkali labile sites. […] For this study, the liver was selected as the tissue for evaluation, since this tissue is expected to contain high concentrations of parent drug and metabolites following oral administration.
Male mice were administered oral doses of 0 (vehicle=5% dextrose), 50, 90 and 120 mg/kg/day by gavage according to the table below. Animals in groups 1-4 were dosed on three consecutive days and euthanized 3 to 4 hours after the last dose by CO2 inhalation. A separate group of animals were dosed with methyl methanesulfonate (MMS) which served as a positive control. Immediately following euthanasia, the liver was removed and collected from each animal.
In this study, comet tail migration, % tail DNA (also known as % tail intensity) and tail moment were determined for each animal/treatment group and served as parameters of DNA damage.

male Sprague-Dawley rats = assay: Intracranial self-stimulation (ICSS), frequency-rate procedure
plasma protein = assay: Plasma protein binding; format: in vitro ADME, Mouse
Source text: There is no information on the protein binding of any of the metabolites.

[2] = test system: isolated rabbit Purkinje fibers; assay: Action potential duration in rabbit cardiac Purkinje fibers
Method: The in vitro effect of 18-MC on the cardiac action potential was evaluated in isolated rabbit Purkinje fibers (FIG. 13). […] Fibers with resting potentials more negative than −80 mV and normal action potential morphology (APD90≥150 ms) were used in the study. Fibers were stimulated continuously at BCL of 1 second for at least 5 minutes. At the end of this period, baseline control APD rate dependence was measured using stimulus pulse trains consisting of approximately 50 pulses at BCL of 1 and 0.5 seconds. After returning to BCL of 1 second, 18-MC (or dl-sotalol) at the lowest concentration was applied for at least 20 minutes to allow equilibration, and the stimulus trains repeated. […] The average responses from the last five recorded action potentials from each stimulus train were analyzed for each test condition.
Electrophysiological recordings were performed with four nominal concentrations of 18-MC (0.3, 1, 3, and 10 μM) added sequentially to four preparations at two stimulus intervals (basic cycle lengths of 1 s and 0.5 s). The effects of 18-MC on action potential parameters were compared to time-matched vehicle control sequences.

Row | Structure (SMILES) | dose at which emesis was seen (dogs) [mg/kg] | stability of dosing solution ([1]; after 3 freeze-thaw (20° C.) cycles) | homogeneity, concentration acceptability, solubility and stability of dosing formulation ([1]; after 10 days of refrigerated storage) | mean % tail DNA (mouse liver; 90 mg/kg/day, vehicle 1.27+/−0.52) | mouse comet assay result (mouse liver; 50, 90, 120 mg/kg/day, 3 days) | M50, Test, mean (SEM) (male Sprague-Dawley rats; 10 mg/kg i.p.) | Threshold (T0), Test, mean (SEM) (male Sprague-Dawley rats; 10 mg/kg i.p.) | M50, Test, mean (SEM) (male Sprague-Dawley rats; 40 mg/kg i.p.) | Threshold (T0), Test, mean (SEM) (male Sprague-Dawley rats; 40 mg/kg i.p.) | M50, Test, mean (SEM) (male Sprague-Dawley rats; 56 mg/kg i.p.) | Threshold (T0), Test, mean (SEM) (male Sprague-Dawley rats; 56 mg/kg i.p.) | effect on ICSS frequency-rate curves, M50 and threshold (T0) (male Sprague-Dawley rats; 10, 40, 56 mg/kg i.p., 45 minutes before test session, hydrochloride) | % Bound Mean ± SD (plasma protein; 200 ng/mL) [%] | % Bound Mean ± SD (plasma protein; 600 ng/mL) [%] | % Bound Mean ± SD (plasma protein; 5,000 ng/mL) [%] | Average % Bound Mean ± SD (plasma protein; average of 3 concentrations) [%] | APD60 ([2]; 3 μM, 1 second BCL) | APD60 ([2]; 10 μM, 0.5 and 1 s BCL) | resting membrane potential, action potential amplitude, Vmax ([2]; any concentration tested, two stimulus intervals)
1 | COCCC1CC2CN3CCc4c([nH]c5ccccc45)C(C(=O)OC)(C2)C13.Cl (stereo not shown) [18-MC HCl, 18-Methoxycoronaridine hydrochloride] | 100 | met the required stability criteria | met the applicable ICH criteria | 2.60+/−0.7% | negative | 1.94 (0.02) log/Hz | 1.80 (0.03) log/Hz | 1.95 (0.02) log/Hz | 1.85 (0.03) log/Hz | 1.95 (0.02) log/Hz | 1.85 (0.02) log/Hz | did not affect; also recorded: no main effect | – | – | – | – | – | – | –
2 | COCC[C@H]1CC2CN3CCc4c([nH]c5ccccc45)[C@](C(=O)OC)(C2)[C@H]13 [18-MC, 18-methoxycoronaridine] | – | – | – | – | – | – | – | – | – | – | – | – | 97.0 ± 0.208 | 97.1 ± 0.058 | 96.5 ± 0.071 | 96.9 ± 0.321 | statistically significant (p<0.05) shortening | statistically significant (P<0.05) shortening | did not induce significant changes
